Test results taken from US9371328B2, “Imidazopyridazinecarbonitriles useful as kinase inhibitors” (BRISTOL-MYERS SQUIBB COMPANY, priority 2008, dated 2016).
Read-outs that look alike come from different tables or passages of the source.

What was measured:
CK2A1 (CK2α/β) = biological target: T1, CK2A1 (CK2α/β) (Homo sapiens, UniProt P68400); assay: CK2 kinase assay, CK2A1 (CK2α/β); type: biochemical
T1 construct: made in house
Experimental: (§1) The effectiveness of compounds of the present invention as inhibitors of protein kinases can be readily tested by assays known to those skilled in the art. For example, in vitro protein kinase assays may be conducted with a relevant purified protein kinase and an appropriate synthetic substrate to determine the inhibitory activity of the compounds. […] Reaction mixtures were incubated at 30° C. for 1 hour, and reaction products were captured by binding to phosphocellulose (P81) filter plates. Incorporation of radioactive phosphate into the peptide substrate was determined by liquid scintillation counting. The potency of compounds in inhibiting CK2 is expressed as IC50, defined as the concentrations of compounds required to inhibit the enzymatic activity by 50%.
(§2) The inhibitory activity of the instant compounds may also be measured by recombinant CK2 holoenzyme kinase assays. The assays were performed in U-bottom 384-well plates. The final assay volume was 30 μl prepared from 15 μl additions of enzyme and substrates (fluoresceinated peptide FL-RRRADDSDDDDD-NH2 and ATP) and test compounds in assay buffer (20 mM HEPES pH 7.4, 10 mM MgCl2, 100 mM NaCl, 0.015% Brij35 and 0.25 mM DTT). The reaction was initiated by the combination of bacterially expressed, CK2 α/β or CK2 α′/β holoenzyme with substrates and test compounds. The reaction was incubated at room temperature for 60 minutes and terminated by adding 30 μl of 35 mM EDTA to each sample. The reaction mixture was analyzed on the Caliper LABCHIP® 3000 (Caliper, Hopkinton, Mass.) by electrophoretic separation of the fluorescent substrate and phosphorylated product. Inhibition data were calculated by comparison to no enzyme control reactions for 100% inhibition and vehicle-only reactions for 0% inhibition. The final concentration of reagents in the CK2 α/β assay was 25 μM ATP, 1.5 μM FL-RRRADDSDDDDD-NH2, […] CK2 α/β holoenzyme, and 1.6% DMSO. The final concentration of reagents in the CK2 α′/β assay was 10 μM ATP, 1.5 μM FL-RRRADDSDDDDD-NH2, 100 pM CK2 α′/β holoenzyme, and 1.6% DMSO. Dose response curves were generated to determine the concentration required inhibiting 50% of kinase activity (IC50). Compounds were dissolved at 10 mM in dimethylsulfoxide (DMSO) and evaluated at eleven concentrations. IC50 values were derived by non-linear regression analysis.

CK2A2 (CK2α′/β) = biological target: T2, CK2A2 (CK2α′/β) (Homo sapiens, UniProt P19784); assay: CK2 kinase assay, CK2A2 (CK2α′/β); type: biochemical
T2 construct: made in house
Experimental: as §1, §2

HCT116 = assay: Cell proliferation inhibition assay (MTT/MTS); type: cell-based; settings: Homo sapiens, HCT-116, Table 1, 72 h with compound
Experimental: Compounds were evaluated for their ability to inhibit cell proliferation, using an assay that measures mitochondrial metabolic activity, that is directly correlated with cell numbers. Cells were plated at 2000 cells/well in 96-well plates and were cultured for 24 h in RPMI-1640 supplemented with 2% fetal bovine serum, before test compounds were added. Compounds were diluted in culture medium such that the final concentration of dimethyl sulfoxide never exceeded 1%. Following the addition of compounds, the cells were cultured for an additional 72 h before cell viability was determined by measuring the conversion of 3-(4,5-dimethylthiazol-2-yl)-2,5-diphenyltetrazolium bromide (MTT) dye using the CellTiter96 kit (Promega) or by measuring the conversion of [3-(4,5-dimethylthiazol-2-yl)-5-(3-carboxymethoxyphenyl)-2-(4-sulfophenyl)-2H-tetrazolium (MTS) dye using the CELLTITER 96® AQueous (Promega).

[1] = Table 2, comparison compounds of US 2008/0045536, read-out: CK2A1 IC50
[2] = Table 2, comparison compounds of US 2008/0045536, read-out: CK2A2 IC50
[3] = Table 1, read-out: CK2A1 (CK2α/β) (IC50)
[4] = Table 1, read-out: CK2A2 (CK2α′/β) (IC50)

T2 sequence (P19784 whole entry, species assumed): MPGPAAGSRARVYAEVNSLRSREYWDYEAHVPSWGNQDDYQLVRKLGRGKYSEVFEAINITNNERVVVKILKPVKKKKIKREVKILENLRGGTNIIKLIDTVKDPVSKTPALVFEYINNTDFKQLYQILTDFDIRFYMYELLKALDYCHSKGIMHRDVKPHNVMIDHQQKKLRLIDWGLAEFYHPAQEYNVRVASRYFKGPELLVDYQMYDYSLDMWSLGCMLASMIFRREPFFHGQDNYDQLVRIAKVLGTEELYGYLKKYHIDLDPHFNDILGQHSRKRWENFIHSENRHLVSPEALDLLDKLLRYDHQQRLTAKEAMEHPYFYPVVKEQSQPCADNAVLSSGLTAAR
T2 sequence (P67870 whole entry partner, species assumed): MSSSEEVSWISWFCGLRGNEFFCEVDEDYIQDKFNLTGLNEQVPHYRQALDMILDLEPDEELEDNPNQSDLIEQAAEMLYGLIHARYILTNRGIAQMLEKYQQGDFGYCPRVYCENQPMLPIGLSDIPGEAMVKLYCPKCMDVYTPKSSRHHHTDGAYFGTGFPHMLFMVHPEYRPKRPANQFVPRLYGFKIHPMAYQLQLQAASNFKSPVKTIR
T1 sequence (P68400 whole entry, species assumed): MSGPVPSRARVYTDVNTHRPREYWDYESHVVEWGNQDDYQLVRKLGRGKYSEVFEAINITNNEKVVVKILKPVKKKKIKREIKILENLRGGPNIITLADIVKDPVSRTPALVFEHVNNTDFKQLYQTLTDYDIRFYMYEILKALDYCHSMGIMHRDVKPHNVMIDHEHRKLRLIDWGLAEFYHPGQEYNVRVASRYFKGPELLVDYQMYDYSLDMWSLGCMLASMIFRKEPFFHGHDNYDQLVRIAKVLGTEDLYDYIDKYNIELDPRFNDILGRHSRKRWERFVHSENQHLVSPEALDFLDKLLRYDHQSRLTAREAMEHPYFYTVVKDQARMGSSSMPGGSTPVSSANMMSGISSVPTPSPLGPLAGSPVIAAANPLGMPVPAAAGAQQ
T1 sequence (P67870 whole entry partner, species assumed): as the sequence (P67870 whole entry partner, species assumed) above

SMILES	IC50 (CK2A1 (CK2α/β); [1]) [nM]	IC50 (CK2A2 (CK2α′/β); [2]) [nM]	IC50 (CK2A1 (CK2α/β); [3]) [nM]	IC50 (CK2A2 (CK2α′/β); [4]) [nM]	IC50 (HCT116) [nM]
N#Cc1cnc2c(NC3CC3)cc(Nc3cccc(N4CCCC4=O)c3)nn12 [Example 73, 8-(Cyclopropylamino)-6-((3-(2-oxo-1-pyrrolidinyl)phenyl)amino)imidazo[1,2-b]pyridazine-3-carbonitrile]			4600	738	2240
N#Cc1cnc2c(NC3CC3)cc(Nc3cccc(C(N)=O)c3)nn12 [Example 71, 3-((3-Cyano-8-(cyclopropylamino)imidazo [1,2-b]pyridazin-6-yl)amino) benzamide]			261	15.6	945
COc1ccc(Nc2cc(NC3CC3)c3ncc(C#N)n3n2)cc1OC [Example 56, 8-(Cyclopropylamino)-6-((3,4-dimethoxyphenyl)amino)imidazo[1,2-b] pyridazine-3-carbonitrile]			155	35.9	482
COc1ccc(Nc2cc(Nc3ccc(OC(F)(F)F)c(-n4cnnc4)c3)nn3c(C#N)cnc23)nc1 [Example 111, 8-((5-Methoxy-2-pyridinyl)amino)-6-((3-(4H-1,2,4-triazol-4-yl)-4-(trifluoromethoxy)phenyl)amino)imidazo[1,2-b] pyridazine-3-carbonitrile]			116	24	34
CC(C)C(=O)Nc1cccc(Nc2cc(NC3CC3)c3ncc(C#N)n3n2)c1 [Example 66, N-(3-((3-Cyano-8-(cyclopropylamino)imidazo [1,2-b]pyridazin-6-yl)amino)phenyl)-2-methylpropanamide]			6060	778	> 2500
N#Cc1cnc2c(NC3CC3)cc(Nc3ccc(F)c(-n4cnnc4)c3)nn12 [Example 46, 8-(Cyclopropylamino)-6-((4-fluoro-3-(4H-1,2,4-triazol-4-yl)phenyl)amino)imidazo [1,2-b]pyridazine-3-carbonitrile]			4.3	2.4	150
COC(=O)Nc1cc(Nc2cc(NC3CC3)c3ncc(C#N)n3n2)ccc1C [Example 95, Methyl (5-((3-cyano-8-(cyclopropylamino)imidazo [1,2-b]pyridazin-6-yl)amino)-2-methylphenyl) carbamate]			6.5	3	22
COc1cc(Nc2cc(NC3CC3)c3ncc(C#N)n3n2)cc(-n2nnnc2C)c1 [Example 37, 8-(Cyclopropylamino)-6-((3-methoxy-5-(5-methyl-1H-tetrazol-1-yl)phenyl)amino) imidazo[1,2-b]pyridazine-3-carbonitrile]			11	4.5	163
COc1ccc(-n2cncn2)cc1Nc1cc(NC2CC2)c2ncc(C#N)n2n1 [Example 160, 8-(Cyclopropylamino)-6-((2-methoxy-5-(1H-1,2,4-triazol-1-yl)phenyl)amino)imidazo [1,2-b]pyridazine-3-carbonitrile]			19.7	4.6	45
N#Cc1cnc2c(NC3CC3)cc(Nc3cccc(-c4nnco4)c3)nn12 [Example 82, 8-(Cyclopropylamino)-6-((3-(1,3,4-oxadiazol-2-yl)phenyl)amino)imidazo[1,2-b]pyridazine-3-carbonitrile]			479	126	127
CC(=O)Nc1cc(Nc2cc(NC3CC3)c3ncc(C#N)n3n2)ccc1C [Example 1, N-(5-((3-Cyano-8-(cyclopropylamino)imidazo[1,2-b]pyridazin-6-yl)amino)-2-methylphenyl)acetamide]			6	7.5	30
N#Cc1ccc(Cl)c(Nc2cc(NC3CC3)c3ncc(C#N)n3n2)c1 [Example 47, 6-((2-Chloro-5-cyanophenyl)amino)-8-(cyclopropylamino) imidazo[1,2-b]pyridazine-3-carbonitrile]			7.4	5.2	41
N#Cc1cnc(Nc2cc(NC3CC3)c3ncc(C#N)n3n2)s1 [Example 57, 6-((5-Cyano-1,3-thiazol-2-yl)amino)-8-(cyclopropylamino) imidazo[1,2-b]pyridazine-3-carbonitrile]			310	58.2	521
COC(=O)Nc1cc(Nc2cc(NC3CC3)c3ncc(C#N)n3n2)ccc1C(=O)N1CCN(C)CC1 [Example 93, Methyl (5-((3-cyano-8-(cyclopropylamino)imidazo [1,2-b]pyridazin-6-yl)amino)-2-((4-methyl-1-piperazinyl)carbonyl)phenyl) carbamate]			712	68.4	> 1000
N#Cc1cnc2c(NC3CC3)cc(Nc3ccc(Cl)c(-c4ncco4)c3)nn12 [Example 81, 6-((4-Chloro-3-(1,3-oxazol-2-yl)phenyl)amino)-8-(cyclopropylamino)imidazo [1,2-b]pyridazine-3-carbonitrile]			512	115	> 1000
Cc1nc(-c2cccc(Nc3cc(NC4CC4)c4ncc(C#N)n4n3)c2)cs1 [Example 80, 8-(Cyclopropylamino)-6-((3-(2-methyl-1,3-thiazol-4-yl)phenyl)amino)imidazo[1,2-b]pyridazine-3-carbonitrile]			4660	1490	> 1000
N#Cc1ccc(Nc2cc(NC3CC3)c3ncc(C#N)n3n2)cc1C(F)(F)F [Example 31, 6-((4-Cyano-3-(trifluoromethyl)phenyl)amino)-8-(cyclopropylamino)imidazo [1,2-b]pyridazine-3-carbonitrile]			143	25.7	460

Results, then the compound that gave them:

IC50 (CK2A1 (CK2α/β); [1]) [nM]	IC50 (CK2A2 (CK2α′/β); [2]) [nM]	IC50 (CK2A1 (CK2α/β); [3]) [nM]	IC50 (CK2A2 (CK2α′/β); [4]) [nM]	IC50 (HCT116) [nM]	SMILES
2690	8090				Cc1c(N[C@H]2CC[C@H](N)CC2)nn2c(C#N)cnc2c1Nc1ccccc1 [XXV(1), reference compound]
		12.2	3.4	65	Cc1ccc(Nc2cc(Nc3ccccn3)c3ncc(C#N)n3n2)cc1C#N [Example 196, 6-((3-Cyano-4-methylphenyl)amino)-8-(2-pyridinylamino)imidazo[1,2-b]pyridazine-3-carbonitrile]
> 50000	31800				Cc1ccc(Nc2cc(N[C@H]3CC[C@H](N)CC3)nn3ccnc23)nc1 [II(16), reference compound]
		25	6.4	433	CCc1ccc(Nc2cc(NC3CC3)c3ncc(C#N)n3n2)cc1NS(C)(=O)=O [Example 235, N-(5-((3-Cyano-8-(cyclopropylamino)imidazo [1,2-b]pyridazin-6-yl)amino)-2-ethylphenyl) methanesulfonamide]
		8.2	1.1	35	Cc1cc(Cl)c(Nc2cc(NC3CC3)c3ncc(C#N)n3n2)cc1C#N [Example 225, 6-((2-Chloro-5-cyano-4-methylphenyl)amino)-8-(cyclopropylamino)imidazo [1,2-b]pyridazine-3-carbonitrile]
		11.9	4.9	128	N#Cc1ccnc(Nc2cc(NC3CC3)c3ncc(C#N)n3n2)c1 [Example 168, 6-((4-Cyano-2-pyridinyl)amino)-8-(cyclopropylamino) imidazo[1,2-b]pyridazine-3-carbonitrile]
		596	119	> 10000	N#Cc1cnc2c(NC3CC3)cc(Nc3cccc(-c4cccnc4)c3)nn12 [Example 214, 8-(Cyclopropylamino)-6-((3-(3-pyridinyl)phenyl)amino) imidazo[1,2-b]pyridazine-3-carbonitrile]
> 50000	> 50000				N[C@H]1CC[C@H](Nc2cc(Nc3ccccc3)c3nccn3n2)CC1 [I(7), reference compound]
> 50000					CCOc1ccc(Nc2cc(N[C@H]3CC[C@H](N)CC3)nn3ccnc23)cc1 [I(1), reference compound]
